{"source": "patent US7030089B2", "about": "(priority 2000, dated 2006)", "key": {"[1]": {"system": "A2780 human ovarian carcinoma cell line", "assay": "Cytotoxicity (growth inhibition) on A2780 cells with or without BSO pretreatment", "type": "cell-based", "description": "(§1) Further evidence of the relevance of GSH levels for the cytotoxicity of the compounds of formula (I) has been obtained by determining the influence of prior treatment with BSO (L-S.R buthionine sulphoximine) on the susceptibility of A2780 human ovarian cells to their cytotoxic and apoptotic effect.\n(§2) The cytotoxic activity was determined on A2780 human ovarian carcinoma cell line.\n(§3) The cytotoxic activity was determined against exponentially growing cells. A2780 cells were seeded in 6 well-plates at concentration of 100,000 cells/ml for 2 ml and incubated for 24 h with the GSH inhibitor BSO and finally exposed to different concentrations of PNU 166196 (untreated cells were incubated with the medium only).\n(§4) After 24 h treatment with the drug, cell growth inhibition was evaluated on the monolayer cells whereas the floating cells were used for morphology evaluation."}, "[2]": {"system": "A2780 human ovarian carcinoma cell line", "assay": "Apoptotic effect (cells with apoptotic morphology, fluorescence microscopy) on A2780 cells with or without BSO pretreatment", "type": "cell-based", "description": "as §1, §2, §3, §4\nApoptosis was evaluated by fluorescence microscopy. At the end of the treatment, floating cells were collected, washed in PBS, fixed in 70% ice-cold ethanol and stored at −20° C. until analysis (5 days max.). Cells were then centrifuged and the pellets were stained with 50 μg/ml propidium iodide, 0.001% Nonidet P40 and 60 U/ml Rnase and stored in the dark for 30 minutes at 37° C. Cells were centrifuged and the pellets were resuspended in […]. At least 600 cells randomly chosen from 2 smears independently prepared were examined for their nuclear morphology changes (chromatin condensation and DNA fragmentation) using a fluorescence microscope [see Int. J. Cancer 65:491–497 (1996)]. All the experiments were carried out twice. Results are reported per the enclosed table II and comments thereof."}, "[3]": {"system": "L1210 murine lymphocytic leukemia cell line", "assay": "Cytotoxic activity (cell growth inhibition, counting surviving cells) on L1210", "type": "cell-based", "conditions": "Mus musculus, read-out: Cytotoxicity IC50", "description": "The cytotoxic activity was determined against exponentially growing cells.\nAll the experiments were carried out twice."}, "[4]": {"system": "L1210/L-PAM cells (melphalan resistant murine leukemia, high GSH)", "assay": "cells", "conditions": "for IC50: Mus musculus, L1210/LPAM, 48 h, read-out: Cytotoxicity IC50; for Cytotoxicity on L1210/L-PAM cells in respect to L1210 cells: comparison of IC50 on the two cell lines", "description": "The cytotoxic activity was determined on L1210 murine lymphocytic leukemia cell line and on the L-PAM resistant cell subline L1210/L-PAM. Cells were grown in vitro as stabilized suspension cultures.L1210 cells were maintained in RPMI 1640 medium containing β-mercaptoethanol (10 μM). L1210/L-PAM cells were maintained in RPMI 1640 medium containing β-mercaptoethanol (50 μM). All culture media (Biowhittaker, UK) were supplemented with 10% Fetal Calf Serum (Biological Industries, Israel) and 2 mM L-glutamine (Biowhittaker, UK).\nThe cytotoxic activity was determined against exponentially growing cells. L1210 and L1210/L-PAM cells were seeded in 24 well-plates at concentration of 50,000 cells/ml and immediately treated for 48 h with the drug.\nThe inhibition of cell growth was evaluated by counting surviving cells with a Coulter Counter. The antiproliferative activity of drugs was calculated from dose-response curves and expressed as IC50 (concentration inhibiting 50% cell growth in treated cultures relative to untreated controls). All the experiments were carried out twice."}, "[5]": {"conditions": "A2780, BSO alone (dose printed MM)"}, "[6]": {"conditions": "L1210 cells (GSH 7.7 nmole/10^6 cells), 48 h incubation"}}, "note": "Several values for one entry are separate records, joined by “and”; a condition that tells them apart may be missing. Identical values can stand only once. Like-named read-outs stand apart in the source and are kept apart here."}
{"smiles": "CCCCS(=N)(=O)CCC(N)C(=O)O", "note": "[BSO, L-S.R buthionine sulphoximine, reference compound]", "values": [{"measurement": "Growth inhibition %", "setting": "[1]; [5]", "result": "2.5 ± 0.2", "unit": "%"}, {"measurement": "Apoptosis %", "setting": "[2]; [5]", "result": 0, "unit": "%"}]}
{"smiles": "N[C@@H](Cc1ccc(N(CCCl)CCCl)cc1)C(=O)O", "note": "[L-PAM, melphalan]", "values": [{"measurement": "IC50", "setting": "[3]; L1210, 48 h", "result": 1.65, "unit": "µg/mL"}, {"measurement": "IC50", "setting": "[4]", "result": 8.1, "unit": "µg/mL"}, {"measurement": "Cytotoxicity on L1210/L-PAM cells in respect to L1210 cells", "setting": "[4]", "result": "lower"}]}
{"smiles": "C=C(Br)C(=O)Nc1cc(C(=O)Nc2cc(C(=O)Nc3cc(C(=O)Nc4cc(C(=O)NCCC(=N)N)n(C)c4)n(C)c3)n(C)c2)n(C)c1.Cl", "note": "[PNU 151807, N-(5-{[(5-{[(5-{[(3-amino-3-iminopropyl)amino]carbonyl}-1-methyl-1H-pyrrol-3-yl)amino]carbonyl}-1-methyl-1H-pyrrol-3-yl)amino]carbonyl}-1-methyl-1H-pyrrol-3-yl)-4-[(2-bromoacryloyl)amino]-1-methyl-1H-pyrrole-2-carboxamide hydrochloride]", "values": [{"measurement": "IC50", "setting": "[3]; [6]", "result": 0.00086, "unit": "µg/mL"}, {"measurement": "IC50", "setting": "[4]", "result": 0.00026, "unit": "µg/mL"}]}
{"smiles": "C=C(Br)C(=O)Nc1cc(C(=O)Nc2cc(C(=O)Nc3cc(C(=O)Nc4cc(C(=O)NCCNC(=N)N)n(C)c4)n(C)c3)n(C)c2)n(C)c1.Cl", "note": "[PNU 166196, N-(5-{[(5-{[(5-{[(2-{[amino(imino)methyl]amino}ethyl)amino]carbonyl}-1-methyl-1H-pyrrol-3-yl)amino]carbonyl}-1-methyl-1H-pyrrol-3-yl)amino]carbonyl}-1-methyl-1H-pyrrol-3-yl)-4-[(2-bromoacryloyl)amino]-1-methyl-1H-pyrrole-2-carboxamide hydrochloride]", "values": [{"measurement": "IC50", "setting": "[3]; [6]", "result": 0.00162, "unit": "µg/mL"}, {"measurement": "IC50", "setting": "[4]", "result": 0.00049, "unit": "µg/mL"}, {"measurement": "Cytotoxicity (percentage of growth inhibition) in BSO pretreated cells in respect to BSO-untreated ones", "setting": "[1]; A2780", "result": "significantly decreased"}, {"measurement": "inhibition at 0.3 µg/mL", "setting": "[1]; Homo sapiens, A2780, A2780, 300 ng/ml, no BSO", "result": "43 ± 2.5", "unit": "%"}, {"measurement": "inhibition at 1 µg/mL", "setting": "[1]; Homo sapiens, A2780, A2780, 1000 ng/ml, no BSO", "result": "64.5 ± 14.5", "unit": "%"}, {"measurement": "inhibition at 3 µg/mL", "setting": "[1]; Homo sapiens, A2780, read-out: Growth inhibition %, A2780, 3000 ng/ml, BSO 0.1 mM 24 h before and during treatment", "result": 38, "unit": "%"}, {"measurement": "inhibition at 3 µg/mL", "setting": "[1]; Homo sapiens, A2780, read-out: Growth inhibition %, A2780, 3000 ng/ml, no BSO", "result": 77.5, "unit": "%"}, {"measurement": "Apoptotic effect (percentage of cells with apoptotic morphology) in BSO pretreated cells in respect to BSO-untreated ones", "setting": "[2]; A2780", "result": "significantly decreased"}, {"measurement": "Apoptosis %", "setting": "[2]; A2780, 300 ng/ml, no BSO", "result": "17.5 ± 6.5", "unit": "%"}, {"measurement": "Apoptosis %", "setting": "[2]; A2780, 1000 ng/ml, no BSO", "result": "49.5 ± 15.5", "unit": "%"}, {"measurement": "Apoptosis %", "setting": "[2]; A2780, 3000 ng/ml, BSO 0.1 mM 24 h before and during treatment", "result": 11.5, "unit": "%"}, {"measurement": "Apoptosis %", "setting": "[2]; A2780, 3000 ng/ml, no BSO, hydrochloride", "result": "74.5% and 74.5 ± 15.5%"}]}
{"smiles": "Cn1cc(NC(=O)c2cc(NC(=O)c3cc(NC(=O)c4ccc(N(CCCl)CCCl)cc4)cn3C)cn2C)cc1C(=O)NCCC(=N)N", "note": "[Tallimustine, 3-[1-methyl-4-[1-methyl-4-[1-methyl-4-[1-methyl-4-[N,N-bis(2-chloroethyl)amino]benzenecarboxamindo]pyrrole-2-carboxamido]pyrrole-2-carboxamido]pyrrole-2-carboxamido]propionamidine]", "values": [{"measurement": "IC50", "setting": "[3]; L1210, 48 h", "result": 0.0225, "unit": "µg/mL"}, {"measurement": "IC50", "setting": "[4]", "result": 0.0274, "unit": "µg/mL"}, {"measurement": "Cytotoxicity on L1210/L-PAM cells in respect to L1210 cells", "setting": "[4]", "result": "comparable"}]}
